Assay results published in PubChem BioAssay AID1259407 (Chemical Carcinogenesis Research Information System (CCRIS), 2018).
The source made the active and inactive calls. The rule behind the calls is not given here.

Test system: CCRIS mutagenicity, Ames/micronucleus/aberration tests
Assay: CCRIS mutagenicity studies
[1] = Test System: AMES SALMONELLA TYPHIMURIUM, Strain/Indicator: TA98, Metabolic Activation: NONE, Method: PREINCUBATION
[2] = Test System: AMES SALMONELLA TYPHIMURIUM, Strain/Indicator: TA100, Metabolic Activation: NONE, Method: PREINCUBATION
[3] = Test System: AMES SALMONELLA TYPHIMURIUM, Strain/Indicator: TA98, Metabolic Activation: NONE, Method: STANDARD PLATE
[4] = Test System: AMES SALMONELLA TYPHIMURIUM, Strain/Indicator: TA98, Metabolic Activation: RAT, LIVER, S-9, AROCLOR 1254, Method: STANDARD PLATE
[5] = Test System: AMES SALMONELLA TYPHIMURIUM, Strain/Indicator: TA100, Metabolic Activation: NONE, Method: STANDARD PLATE
[6] = Test System: AMES SALMONELLA TYPHIMURIUM, Strain/Indicator: TA100, Metabolic Activation: RAT, LIVER, S-9, AROCLOR 1254, Method: STANDARD PLATE

Nc1ccc(Cc2ccc(N)c(Cc3ccc(N)cc3)c2)cc1
mutagenic call (Test System: AMES SALMONELLA TYPHIMURIUM, Strain/Indicator: TA97, Metabolic Activation: HAMSTER, LIVER, S-9, AROCLOR 1254 (10%), Method: PREINCUBATION): active; positive
mutagenic call (Test System: AMES SALMONELLA TYPHIMURIUM, Strain/Indicator: TA97, Metabolic Activation: NONE, Method: PREINCUBATION): inactive; negative
mutagenic call (Test System: AMES SALMONELLA TYPHIMURIUM, Strain/Indicator: TA97, Metabolic Activation: RAT, LIVER, S-9, AROCLOR 1254 (10%), Method: PREINCUBATION): active; positive
mutagenic call (Test System: AMES SALMONELLA TYPHIMURIUM, Strain/Indicator: TA98, Metabolic Activation: HAMSTER, LIVER, S-9, AROCLOR 1254 (10%), Method: PREINCUBATION): active; positive
mutagenic call [1]: inactive; negative
mutagenic call (Test System: AMES SALMONELLA TYPHIMURIUM, Strain/Indicator: TA98, Metabolic Activation: RAT, LIVER, S-9, AROCLOR 1254 (10%), Method: PREINCUBATION): active; positive
mutagenic call (Test System: AMES SALMONELLA TYPHIMURIUM, Strain/Indicator: TA100, Metabolic Activation: HAMSTER, LIVER, S-9, AROCLOR 1254 (10%), Method: PREINCUBATION): active; positive
mutagenic call [2]: inactive; negative
mutagenic call (Test System: AMES SALMONELLA TYPHIMURIUM, Strain/Indicator: TA100, Metabolic Activation: RAT, LIVER, S-9, AROCLOR 1254 (10%), Method: PREINCUBATION): active; positive
mutagenic call (Test System: AMES SALMONELLA TYPHIMURIUM, Strain/Indicator: TA1535, Metabolic Activation: HAMSTER, LIVER, S-9, AROCLOR 1254 (10%), Method: PREINCUBATION): inactive; negative
mutagenic call (Test System: AMES SALMONELLA TYPHIMURIUM, Strain/Indicator: TA1535, Metabolic Activation: NONE, Method: PREINCUBATION): inactive; negative
mutagenic call (Test System: AMES SALMONELLA TYPHIMURIUM, Strain/Indicator: TA1535, Metabolic Activation: RAT, LIVER, S-9, AROCLOR 1254 (10%), Method: PREINCUBATION): inactive; negative
mutagenic call (Test System: AMES SALMONELLA TYPHIMURIUM, Strain/Indicator: TA1537, Metabolic Activation: HAMSTER, LIVER, S-9, AROCLOR 1254 (10%), Method: PREINCUBATION): active; positive
mutagenic call (Test System: AMES SALMONELLA TYPHIMURIUM, Strain/Indicator: TA1537, Metabolic Activation: RAT, LIVER, S-9, AROCLOR 1254 (10%), Method: PREINCUBATION): active; positive

COc1cc(N)c(C)cc1N
mutagenic call [3]: inactive; negative
mutagenic call [4]: inactive; negative
mutagenic call [5]: inactive; negative
mutagenic call [6]: inactive; negative
mutagenic call (Test System: AMES SALMONELLA TYPHIMURIUM, Strain/Indicator: TA1535, Metabolic Activation: NONE, Method: STANDARD PLATE): inactive; negative
mutagenic call (Test System: AMES SALMONELLA TYPHIMURIUM, Strain/Indicator: TA1535, Metabolic Activation: RAT, LIVER, S-9, AROCLOR 1254, Method: STANDARD PLATE): inactive; negative
mutagenic call (Test System: AMES SALMONELLA TYPHIMURIUM, Strain/Indicator: TA1537, Metabolic Activation: NONE, Method: STANDARD PLATE): inactive; negative
mutagenic call (Test System: AMES SALMONELLA TYPHIMURIUM, Strain/Indicator: TA1537, Metabolic Activation: RAT, LIVER, S-9, AROCLOR 1254, Method: STANDARD PLATE): inactive; negative
mutagenic call (Test System: AMES SALMONELLA TYPHIMURIUM, Strain/Indicator: TA1538, Metabolic Activation: NONE, Method: STANDARD PLATE): inactive; negative
mutagenic call (Test System: AMES SALMONELLA TYPHIMURIUM, Strain/Indicator: TA1538, Metabolic Activation: RAT, LIVER, S-9, AROCLOR 1254, Method: STANDARD PLATE): inactive; negative

Cc1ccc2c(c1)c(=NC(=O)CCCCl)sn2C(=O)CCCCl
mutagenic call (Test System: AMES SALMONELLA TYPHIMURIUM, Strain/Indicator: TA100, Metabolic Activation: S-9, Method: STANDARD PLATE): inactive; negative

CC(=O)O[C@H]1[C@@H]2CC(C)(C)CC2=C(C=O)[C@@]2(C=O)C[C@@]12C
mutagenic call [3]: inactive; negative
mutagenic call [5]: inactive; negative
mutagenic call (Test System: AMES SALMONELLA TYPHIMURIUM, Strain/Indicator: TA2637, Metabolic Activation: NONE, Method: STANDARD PLATE): inactive; negative
mutagenic call (Test System: CHINESE HAMSTER V-79, Strain/Indicator: V-79/6-THIOGUANINE (HGPRT), Metabolic Activation: NONE): inactive; negative

Cc1c([N+](=O)[O-])c(C)c([N+](=O)[O-])c(C(C)(C)C)c1[N+](=O)[O-]
mutagenic call [1]: inactive; negative
mutagenic call [3]: inactive; negative
mutagenic call (Test System: AMES SALMONELLA TYPHIMURIUM, Strain/Indicator: TA98, Metabolic Activation: RAT, LIVER, S-9, AROCLOR 1254, Method: PREINCUBATION): inactive; negative
mutagenic call [4]: inactive; negative
mutagenic call [2]: inactive; negative
mutagenic call [5]: inactive; negative
mutagenic call (Test System: AMES SALMONELLA TYPHIMURIUM, Strain/Indicator: TA100, Metabolic Activation: RAT, LIVER, S-9, AROCLOR 1254, Method: PREINCUBATION): inactive; negative
mutagenic call [6]: inactive; negative
mutagenic call (Test System: MOUSE LYMPHOMA, Strain/Indicator: L5178Y (TK+/TK-), Metabolic Activation: NONE, Method: SUSPENSION/PLATE): inactive; negative
mutagenic call (Test System: MOUSE LYMPHOMA, Strain/Indicator: L5178Y (TK+/TK-), Metabolic Activation: RAT, LIVER, S-9, AROCLOR 1242 AND 1254 (2:1), Method: SUSPENSION/PLATE): inactive; negative
mutagenic call (Test System: UDS RAT HEPATOCYTES, Strain/Indicator: THY INCORP, Metabolic Activation: NONE): inactive; negative
mutagenic call (Test System: UDS RAT HEPATOCYTES, Strain/Indicator: THY INCORP, Metabolic Activation: NONE, Method: IN VIVO-IN VITRO): inactive; negative

Fc1cc2cccnc2c2ccccc12
mutagenic call (Test System: AMES SALMONELLA TYPHIMURIUM, Strain/Indicator: TA100, Metabolic Activation: RAT, LIVER, S-9, PHENOBARBITAL AND 5,6-BENZOFLAVONE, Method: PREINCUBATION): active; positive

Cc1ccc(N)cc1N=Nc1cc(N)ccc1C
mutagenic call (Test System: AMES SALMONELLA TYPHIMURIUM, Strain/Indicator: TA98, Metabolic Activation: NONE, Method: SUSPENSION/PLATE): inactive; negative
mutagenic call (Test System: AMES SALMONELLA TYPHIMURIUM, Strain/Indicator: TA98, Metabolic Activation: RAT, LIVER, S-9, PHENOBARBITAL AND 5,6-BENZOFLAVONE, Method: SUSPENSION/PLATE): active; positive
mutagenic call (Test System: AMES SALMONELLA TYPHIMURIUM, Strain/Indicator: TA100, Metabolic Activation: NONE, Method: SUSPENSION/PLATE): inactive; negative
mutagenic call (Test System: AMES SALMONELLA TYPHIMURIUM, Strain/Indicator: TA100, Metabolic Activation: RAT, LIVER, S-9, PHENOBARBITAL AND 5,6-BENZOFLAVONE, Method: SUSPENSION/PLATE): active; positive
